Laboratory results from patent publication EP0771196B1, “EXCITATORY AMINO ACID RECEPTOR ANTAGONISTS” (ELI LILLY AND COMPANY, priority 1994, dated 1996).

Experiments:
[1] = tested on: metabotropic glutamate receptors; test: Displacement of 1S,3R-ACPD-sensitive [3H]glutamate binding to rat brain cell membranes; details: crude membranes of rat forebrain
Rats = test: Conditioned active avoidance model; type: in vivo
Description: This model was developed in the early 50s and 60s (Pfeiffer & Jenney, Ann. N.Y. Acad. Sci., 66:[…], 1957; Maffii, J. Pharm. Pharmacol., 11: 129-139, 1959; Cook & Weidley, Ann; N.Y. Acad. Sci., 66: […], 1957; Janke, Handbook of Experimental Pharmacology, Vol. 55/I, New York: Plenum Press, 1978) and is still the primary model used to screen compounds for antipsychotic efficacy.
Rats were individually placed in a sound attenuated, two compartment test chamber. Active avoidance testing consisted of 20 trials each day. On each trial a light (130 v.) and a sound (85 dbA) were delivered simultaneously and 5 seconds later a 5 mA shock was delivered to the floor of the chamber. After 5 seconds the footshock, the light, and the sound were terminated. The animals learned to move from one side of the chamber to the other side when the light and sound cues were presented to avoid shock (avoidance responding) or the rat moved when the shock was administered (escape). Data were tabulated as mean percent escape or mean percent to avoidance for each test day. Prior to drug testing all animals were trained to successfully avoid shock delivery on 90% of trials.
This profile on conditioned avoidance is indicative of antipsychotic efficacy.

[2] = tested on: metabotropic glutamate receptors; test: Displacement of 1S,3R-ACPD-sensitive [3H]glutamate binding to rat brain cell membranes; details: crude membranes of rat forebrain; for IC50: inhibition of [3H]glutamate binding
Description: The binding of [^3H]glutamate was conducted with crude membranes of rat forebrain as described by Schoepp and True. Schoepp and True, Neuroscience Lett., 145, 100-104 (1992) and True and Schoepp, Society for Neuroscience Abstracts, 19, 470 (1993). IC50 values for the inhibition of [^3H]glutamate binding, or the percent displacement of [^3H]glutamate binding at a 10 µM concentration, of the formula I compound, is shown in Table II.

[3] = 0, 1, 3, 10 and 30mg/kg, i.p. 20 minutes prior to testing

In the case of `NC(CCc1cccc(F)c1)(C(=O)O)[C@H]1C[C@@H]1C(=O)O` (mixture of isomers) [Example 81, 2SR- and 2RS-2-amino-2-(1SR,2SR-2-carboxycyclopropan-1-yl)-4-(3-fluorophenyl)butanoic acid], the “ACPD-Sensitive [^3H]Glutamate Binding % Displacement @ 0.1 µM” value ([1]; 0.1 µM compound) is reported as “(57% @ 0.1 µM)”.

`N[C@](CC1c2ccccc2Oc2ccccc21)(C(=O)O)[C@H]1C[C@@H]1C(=O)O` [Example 72] was tested, and the avoidance responding (Rats; [3]) was “dose related decrease in avoidance responding”, the escape responding (Rats; [3]) was “not affecting escape responding” and the “activity in the conditioned active avoidance model” value (Rats; summary statement) was “active”. The IC50 [2] was 0.014 µM.

With `NC(CC(Cc1ccccc1)Cc1ccccc1)(C(=O)O)[C@H]1C[C@@H]1C(=O)O` (mixture of isomers) [Example 51, 2SR- and 2RS-2-amino-2-(1SR,2SR-2-carboxycyclopropan-1-yl)-4-benzyl-5-phenylpentanoic acid] the “ACPD-Sensitive [^3H]Glutamate Binding % Displacement @ 1 µM” value ([1]; 1 µM compound) was “(15% @ 1 µM)”.

In the case of `N[C@@](CC(c1ccccc1)c1ccccc1)(C(=O)O)[C@@H]1C[C@H]1C(=O)O` [Example 65, 2R 2-amino-2-(1R,2R-2-carboxycyclopropan-1-yl)-4,4-diphenylbutanoic acid], the “ACPD-Sensitive [^3H]Glutamate Binding % Displacement at 10 µM” value ([2]; 10 µM compound) is reported as “(45%)”.

Work on `NC(CCc1cccc(Br)c1)(C(=O)O)C1CC1C(=O)O` (stereo not drawn) [Example 38, 2SR- and 2RS-2-amino-2-(1SR,2SR-2-carboxycyclopropan-1-yl)-4-(3-bromophenyl)butanoic acid] yielded an IC50 [2] of 0.055 µM.

`NC(CCc1ccc(-c2ccccc2)cc1)(C(=O)O)[C@H]1C[C@@H]1C(=O)O` (mixture of isomers) [Example 49, 2SR- and 2RS-2-amino-2-(1SR,2SR-2-carboxycyclopropan-1-yl)-4-(4-biphenyl)butanoic acid] was tested, and the IC50 [2] was 1.5 µM.

Compound `NC(CCc1ccc(F)cc1)(C(=O)O)[C@H]1C[C@@H]1C(=O)O` (mixture of isomers) [Example 54, 2SR- and 2RS-2-amino-2-(1SR,2SR-2-carboxycyclopropan-1-yl)-4-(4-fluorophenyl)butanoic acid] has an IC50 [2] of 0.023 µM.
